Assay results published in ChEMBL document CHEMBL1129761, “2-[(Alkylsulfonyl)oxy]-6-substituted-1H-isoindole-1,3(2H)-dione mechanism-based inhibitors of human leukocyte elastase” (Bioorg Med Chem Lett, 1996).

Tests used:
[1] = biological target: Chymotrypsinogen A (Bos taurus) (UniProt P00766); assay: Compound was evaluated for the inhibition of Chymotrypsinogen
[2] = biological target: T1, Neutrophil elastase (Homo sapiens) (UniProt P08246); assay: Compound was evaluated for the inhibition of human leukocyte elastase (HLE).
T1 sequence (whole entry): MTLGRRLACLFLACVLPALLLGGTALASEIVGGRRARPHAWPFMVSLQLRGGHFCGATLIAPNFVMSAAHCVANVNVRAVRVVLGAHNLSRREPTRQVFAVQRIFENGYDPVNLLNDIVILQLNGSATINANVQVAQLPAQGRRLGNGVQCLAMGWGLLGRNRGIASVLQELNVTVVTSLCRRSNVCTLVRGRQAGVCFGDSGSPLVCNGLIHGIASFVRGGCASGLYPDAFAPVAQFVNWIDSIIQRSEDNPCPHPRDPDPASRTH

[3] = biological target: T2, Chymotrypsin-like elastase family member 2A (Sus scrofa) (UniProt P08419); assay: Compound was evaluated for the inhibition of porcine pancreatic elastase (PPE).
T2 sequence (whole entry): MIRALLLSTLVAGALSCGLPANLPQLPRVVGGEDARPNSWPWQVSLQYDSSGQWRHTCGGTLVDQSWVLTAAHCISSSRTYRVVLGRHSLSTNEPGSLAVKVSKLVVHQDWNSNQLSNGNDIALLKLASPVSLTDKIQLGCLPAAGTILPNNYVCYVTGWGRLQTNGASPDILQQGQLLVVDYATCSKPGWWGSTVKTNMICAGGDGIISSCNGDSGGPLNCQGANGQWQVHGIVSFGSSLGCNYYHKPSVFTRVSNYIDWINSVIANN

Row | SMILES | k obs / 1 [1] [M⁻¹ s⁻¹] | k obs / 1 [2] [M⁻¹ s⁻¹] | k obs / 1 [3] [M⁻¹ s⁻¹]
1 | CS(=O)(=O)ON1C(=O)c2ccc(N)cc2C1=O | 12000 | 110000 | 24000
2 | Cc1ccc(S(=O)(=O)ON2C(=O)c3ccc(C)cc3C2=O)cc1 | 27000 | 58000 | 7400
3 | CS(=O)(=O)ON1C(=O)c2ccccc2C1=O | 2700 | 61000 | 6500
4 | CC(C)S(=O)(=O)ON1C(=O)c2ccccc2C1=O | 160000 | 63000 | 370
5 | CC(C)S(=O)(=O)ON1C(=O)c2ccc(N)cc2C1=O | 11000 | 82000 | 22000

More lines, now with the values ahead:

Row | k obs / 1 [1] [M⁻¹ s⁻¹] | k obs / 1 [2] [M⁻¹ s⁻¹] | k obs / 1 [3] [M⁻¹ s⁻¹] | SMILES
6 | 90000 | 78000 | 1400 | Cc1ccc(S(=O)(=O)ON2C(=O)c3ccccc3C2=O)cc1
7 | 16000 | 30000 | 21000 | Cc1ccc2c(c1)C(=O)N(OS(C)(=O)=O)C2=O
